# Measured values as given in US9320759B2, “Methods and compositions for treating, reducing or preventing deterioration of the visual system of animals” (Nestec S.A, priority 2011, dated 2016).
# Key:
# [1] = tested on: TUNEL-positive cells in the ischemic boundary cortex; assay: TUNEL staining and cell death quantification after transient middle cerebral artery occlusion; format: in vivo, rat; conditions: OVX female rats, 4 weeks diet (E2 1 week), 1 hour MCA occlusion, 24 hours reperfusion
# Procedure: Young adult (2 to 3 months old) female Charles River rats were ovariectomized (OVX) and fed one of 5 compositions for 4 weeks or treated with estradiol (E2) as a positive control for one week. The animal groups and respective compositions were: At the end of the 4 weeks of feeding (or 1 week of E2 treatment), the animals were subjected to a transient (1 hour) middle cerebral artery occlusion followed by reperfusion for 24 hours to mimic one of the main causes of neuron loss. Then, the animals were euthanized for determination of brain lesion volume and subsequent terminal deoxynucleotidyl transferase dUTP nick end labeling (TUNEL) staining to evaluate apoptosis in and around brain lesions. TUNEL staining was conducted on the same tissue used for assessment of lesion volume in Example 2. Brain slices were post-fixed in 4% formalin for later sectioning for subsequent staining for TUNEL positive neurons. DNA fragmentation was detected by a TUNEL method using a Dead END fluorescent kit (Promega, Madison, Wis.) according to the manufacturer's instruction. […] Within these boundaries, optical dissectors were systematically randomly sampled and the number of positive cells, together with DAPI labeled nuclear counter-stain in each optical section is counted. […] The data were expressed as the percentage of DAPI nuclear counter-stained cells.
# [2] = tested on: brain lesion (infarcted area) after middle cerebral artery occlusion; assay: TTC staining, brain lesion volume after transient middle cerebral artery occlusion; format: in vivo, rat; conditions: OVX female rats, 4 weeks diet (E2 1 week), 1 hour MCA occlusion, 24 hours reperfusion
# Procedure: Young adult (2 to 3 months old) female Charles River rats were ovariectomized (OVX) and fed one of 5 compositions for 4 weeks or treated with estradiol (E2) as a positive control for one week. The animal groups and respective compositions were: At the end of the 4 weeks of feeding (or 1 week of E2 treatment), the animals were subjected to a transient (1 hour) middle cerebral artery occlusion followed by reperfusion for 24 hours to mimic one of the main causes of neuron loss. […] Photographs were taken with a digital camera. The digital images of each brain section were used to calculate lesion volume for the infracted area of the brain.
smiles,measurement,setting,value
C[C@]12CC[C@@H]3c4ccc(O)cc4CC[C@H]3[C@@H]1CC[C@@H]2O [17β-Estradiol],TUNEL Staining Value (TUNEL-positive cells normalized to the total number of cells by DAPI stain),[1],37.69 percentage of DAPI nuclear counter-stained cells
same,Lesion Volume Value,[2],147.41
